According to patent US20250230154A1, “COMPOUND HAVING SHP2 PROTEIN DEGRADING ACTIVITY, AND MEDICAL USES THEREOF” (UBIX THERAPEUTICS, INC., priority 2021, published 2025):

Target: T1, SHP2 protein (Homo sapiens, UniProt Q06124)
T1 sequence (Q06124 1-593): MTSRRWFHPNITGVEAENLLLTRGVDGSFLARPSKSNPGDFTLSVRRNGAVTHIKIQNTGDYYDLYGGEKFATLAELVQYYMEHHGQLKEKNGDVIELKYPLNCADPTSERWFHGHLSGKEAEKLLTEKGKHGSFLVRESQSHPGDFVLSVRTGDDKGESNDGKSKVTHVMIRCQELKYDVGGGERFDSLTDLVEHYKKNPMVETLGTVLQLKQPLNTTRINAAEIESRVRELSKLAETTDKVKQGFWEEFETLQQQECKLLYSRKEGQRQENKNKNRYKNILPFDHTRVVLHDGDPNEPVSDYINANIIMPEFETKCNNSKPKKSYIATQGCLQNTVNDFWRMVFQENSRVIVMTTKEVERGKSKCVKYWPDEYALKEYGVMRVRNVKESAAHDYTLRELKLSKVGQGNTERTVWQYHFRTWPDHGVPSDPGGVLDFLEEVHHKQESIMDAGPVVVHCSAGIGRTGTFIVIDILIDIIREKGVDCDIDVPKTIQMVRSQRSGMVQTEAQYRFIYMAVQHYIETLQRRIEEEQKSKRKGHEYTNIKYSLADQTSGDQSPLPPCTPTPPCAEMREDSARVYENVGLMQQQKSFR
Experiment: Measurement of SHP2 protein degradation in KYSE-520 cells (western blotting)
Format: cell-based
Design: endogenous in cells
Conditions: 24 hours
Experimental: Experimental Example 1: Measurement of SHP2 Protein Degradation in KYSE-520 Cells
KYSE-520 cells were treated with the synthesized Example compound, and the amount of SHP2 protein present in the cells was measured using western blotting detection. The protocol of the experiment conducted using KYSE-520 cells was as follows:
[Culture] KYSE-520 cells resuspended in RPMI1640 MEDIUM (Hyclone, SH30027.01) containing 5% FBS (Hyclone, SV30207.02) and 1% Penicillin-streptomycin (Welgene, LS 202-02) were seeded at a density of 2.5×10^5/well in a 6-well plate in an amount of 2 ml each and incubated for 2 days.
[Compound treatment] […] After 24 hours, cells were harvested. For the negative control group, DMSO diluted 1/10 to the media (3 mL DMSO+27 mL media) was added.
[Cell Lysis and Protein Quantification] Lysis buffer was prepared as follows: […] of RIPA buffer (Biosesang, RC2038-050-00)+0.5 mM PMSF (SIGMA, P7626)+1× Protease/Phosphatase Inhibitor (Cell signaling, 5872S) per well was added and placed on ice for 30 minutes (vortexing at 0 and 30 minutes, respectively). After sonication process (10 seconds pulse, 30 seconds rest, 5 cycles, 70% amplification), centrifugation (15000 g, 15 min, 4° C.) was performed, and then only the supernatant was taken and transferred to a new microtube. The sample was diluted ¼ with RIPA buffer in a 96-well plate, and mixed with A:B=50:1 of the BCA Protein Assay Kit (iNtRON, 21071). […] each of the mixture was left at 37° C. for 30 minutes, and cooled for 10 minutes. Then, absorbance was measured at 562 nm with the SYNERGY H1 microplate reader from BioTek. After making a sample by quantifying the protein with the measured value, boiling was performed at 70° C. for 10 minutes. At this time, the sample buffer used was a mixture of NuPAGE or Bolt 4× sample buffer (Invitrogen) and each 10× sample reducing agent according to the gel to be used, and RIPA buffer was used for protein dilution.
[Western blotting detection method] The same amount of sample was loaded on NuPAGE or Bolt Bis-tris 4-12% gradient gel and run (200 V, 35 minutes). It was transferred to 0.2 mm NC membrane with Trans-blot Turbo (BIO-RAD) (1.3 A constant, 25 V limit, 15 minutes). Blocking was performed at room temperature for 1 hour with Skim milk or Intercept Blocking Buffer (LI-COR, 927-60001):0.1% TBST=1:1. Anti SHPTP2 Mouse (1:500 in 5% Skim milk/TBST, size: 70 kDa, Santacruz sc-7384) was incubated overnight at 4° C., and Anti GAPDH Rabbit (1:2,000 in 5% BSA/0.2% TBST, size: 37 kDa, CST #2118) was incubated at room temperature for 1 hour 30 minutes or 3 hours. It was washed 3 times for 5 minutes each with 0.2% TBST washing buffer. Secondary antibody Anti-Rabbit IgG (1:5,000 in 5% Skim milk/0.2% TBST, CST), and IRDye® 680RD Goat anti-Rabbit IgG Secondary Antibody (1:10,000 in 5% BSA/0.2% TBST, LI-COR 926-68071) were incubated for 45 minutes on a rocker at room temperature. It was washed 5 times for 5 minutes each with 0.2% TBST washing buffer and detected with LI-COR's Odyssey. At this time, SHPTP2 was detected using SuperSignal West Pico PLUS Chemiluminescent Substrate, and house-keeping genes were also detected.
In the results of Table 4 below, Compounds 1-7, 13-19, and 21-26 are results in KYSE-520 cells, and the others are results in MV-4-11 cells.

SHP2 degradation (%) 10 nM [%] | SHP2 degradation (%) 100 nM [%] | SHP2 degradation (%) 1000 nM [%] | SMILES
28.9 | 64.5 | 74.5 | Cc1ncsc1-c1ccc(CNC(=O)[C@@H]2C[C@@H](O)CN2C(=O)[C@@H](NC(=O)C2(F)CC2)C(C)(C)C)c(OCCCN2CCC(C(=O)Nc3cccc(Sc4cnc(N5CCC(C)(CN)CC5)cn4)c3Cl)CC2)c1 [Example 1, N-(3-((5-(4-(aminomethyl)-4-methylpiperidin-1-yl)pyrazin-2-yl)thio)-2-chlorophenyl)-1-(3-(2-(((2S,4R)-1-((S)-2-(1-fluorocyclopropane-1-carboxamido)-3,3-dimethylbutanoyl)-4-hydroxypyrrolidine-2-carboxamido)methyl)-5-(4-methylthiazol-5-yl)phenoxy)propyl)piperidine-4-carboxamide]
19.5 | 82.4 | 95.0 | Cc1ncsc1-c1ccc(CNC(=O)[C@@H]2C[C@@H](O)CN2C(=O)[C@@H](NC(=O)C2(F)CC2)C(C)(C)C)c(OCCCN2CCC(CC(=O)Nc3cccc(Sc4cnc(N5CCC(C)(CN)CC5)cn4)c3Cl)CC2)c1 [Example 6, (2S,4R)—N-(2-(3-(4-(2-((3-((5-(4-(aminomethyl)-4-methylpiperidin-1-yl)pyrazin-2-yl)thio)-2-chlorophenyl)amino)-2-oxoethyl)piperidin-1-yl)propoxy)-4-(4-methylthiazol-5-yl)benzyl)-1-((S)-2-(1-fluorocyclopropane-1-carboxamido)-3,3-dimethylbutanoyl)-4-hydroxypyrrolidine-2-carboxamide]
14.2 | 60.1 | 69.1 | Cc1ncsc1-c1ccc(CNC(=O)[C@@H]2C[C@@H](O)CN2C(=O)[C@@H](NC(=O)C2(F)CC2)C(C)(C)C)c(OCCCN2CCC(CCC(=O)Nc3cccc(Sc4cnc(N5CCC(C)(CN)CC5)cn4)c3Cl)CC2)c1 [Example 14, (2S,4R)—N-(2-(3-(4-(3-((3-((5-(4-(aminomethyl)-4-methylpiperidin-1-yl)pyrazin-2-yl)thio)-2-chlorophenyl)amino)-3-oxopropyl)piperidin-1-yl)propoxy)-4-(4-methylthiazol-5-yl)benzyl)-1-((S)-2-(1-fluorocyclopropane-1-carboxamido)-3,3-dimethylbutanoyl)-4-hydroxypyrrolidine-2-carboxamide]

More lines, now with the values behind:

SMILES | SHP2 degradation (%) 10 nM [%] | SHP2 degradation (%) 100 nM [%] | SHP2 degradation (%) 1000 nM [%]
Cc1ncsc1-c1ccc(CNC(=O)[C@@H]2C[C@@H](O)CN2C(=O)[C@@H](NC(=O)C2(F)CC2)C(C)(C)C)c(OCCCCN2CCC(CCC(=O)Nc3cccc(Sc4cnc(N5CCC(C)(CN)CC5)cn4)c3Cl)CC2)c1 [Example 15, (2S,4R)—N-(2-(4-(4-(3-((3-((5-(4-(aminomethyl)-4-methylpiperidin-1-yl)pyrazin-2-yl)thio)-2-chlorophenyl)amino)-3-oxopropyl)piperidin-1-yl)butoxy)-4-(4-methylthiazol-5-yl)benzyl)-1-((S)-2-(1-fluorocyclopropane-1-carboxamido)-3,3-dimethylbutanoyl)-4-hydroxypyrrolidine-2-carboxamide] | 21.7 | 58.3 | 74.6
Cc1ncsc1-c1ccc(CNC(=O)[C@@H]2C[C@@H](O)CN2C(=O)[C@@H](NC(=O)C2(F)CC2)C(C)(C)C)c(OCCCC(=O)N2CCC(CCC(=O)Nc3cccc(Sc4cnc(N5CCC(C)(CN)CC5)cn4)c3Cl)CC2)c1 [Example 24, (2S,4R)—N-(2-(4-(4-(3-((3-((5-(4-(aminomethyl)-4-methylpiperidin-1-yl)pyrazin-2-yl)thio)-2-chlorophenyl)amino)-3-oxopropyl)piperidin-1-yl)-4-oxobutoxy)-4-(4-methylthiazol-5-yl)benzyl)-1-((S)-2-(1-fluorocyclopropane-1-carboxamido)-3,3-dimethylbutanoyl)-4-hydroxypyrrolidine-2-carboxamide] | 15.1 | 52.1 | 74.7
Cc1ncsc1-c1ccc(CNC(=O)[C@@H]2C[C@@H](O)CN2C(=O)[C@@H](NC(=O)C2(F)CC2)C(C)(C)C)c(OCCCC(=O)N2CCC(C(=O)Nc3cccc(Sc4cnc(N5CCC(C)(CN)CC5)cn4)c3Cl)CC2)c1 [Example 21, N-(3-((5-(4-(aminomethyl)-4-methylpiperidin-1-yl)pyrazin-2-yl)thio)-2-chlorophenyl)-1-(4-(2-(((2S,4R)-1-((S)-2-(1-fluorocyclopropane-1-carboxamido)-3,3-dimethylbutanoyl)-4-hydroxypyrrolidine-2-carboxamido)methyl)-5-(4-methylthiazol-5-yl)phenoxy)butanoyl)piperidine-4-carboxamide] | 11.7 | 51.7 | 66.6
Cc1ncsc1-c1ccc(CNC(=O)[C@@H]2C[C@@H](O)CN2C(=O)[C@@H](NC(=O)C2(F)CC2)C(C)(C)C)c(OCCCCN2CCC(C(=O)Nc3cccc(Sc4cnc(N5CCC(C)(CN)CC5)cn4)c3Cl)CC2)c1 [Example 2, N-(3-((5-(4-(aminomethyl)-4-methylpiperidin-1-yl)pyrazin-2-yl)thio)-2-chlorophenyl)-1-(4-(2-(((2S,4R)-1-((S)-2-(1-fluorocyclopropane-1-carboxamido)-3,3-dimethylbutanoyl)-4-hydroxypyrrolidine-2-carboxamido)methyl)-5-(4-methylthiazol-5-yl)phenoxy)butyl)piperidine-4-carboxamide] | 23.3 | 81.8 | 94.3
Cc1ncsc1-c1ccc(CNC(=O)[C@@H]2C[C@@H](O)CN2C(=O)[C@@H](NC(=O)C2(F)CC2)C(C)(C)C)c(OCCCCCCN2CCC(C(=O)Nc3cccc(Sc4cnc(N5CCC(C)(CN)CC5)cn4)c3Cl)CC2)c1 [Example 3, N-(3-((5-(4-(aminomethyl)-4-methylpiperidin-1-yl)pyrazin-2-yl)thio)-2-chlorophenyl)-1-(6-(2-(((2S,4R)-1-((S)-2-(1-fluorocyclopropane-1-carboxamido)-3,3-dimethylbutanoyl)-4-hydroxypyrrolidine-2-carboxamido)methyl)-5-(4-methylthiazol-5-yl)phenoxy)hexyl)piperidine-4-carboxamide] | −15.6 | 48.8 | 84.0
